Data taken from PubChem BioAssay (NCI).
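Results reflect a 48-hour exposure of cells in 96-well plates to compound at five concentrations. GI50 is the concentration that inhibits growth by half. The concentration for full growth arrest is given as TGI.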

Columns and labels:
Assay in all cases: NCI-60 cell line screen, 48 h
SW-620 colon = system: SW-620 colon
OVCAR-8 ovarian = system: OVCAR-8 ovarian
SK-MEL-5 melanoma = system: SK-MEL-5 melanoma
A549 NSCLC = system: A549 NSCLC
COLO 205 colon = system: COLO 205 colon
HOP-62 NSCLC = system: HOP-62 NSCLC
NCI-H23 lung = system: NCI-H23 lung
LOX IMVI melanoma = system: LOX IMVI melanoma

Row | SMILES | TGI (SW-620 colon) | TGI (OVCAR-8 ovarian) | TGI (SK-MEL-5 melanoma) | TGI (A549 NSCLC) | TGI (COLO 205 colon) | TGI (HOP-62 NSCLC) | TGI (NCI-H23 lung) | TGI (LOX IMVI melanoma) | GI50 (SW-620 colon) | GI50 (OVCAR-8 ovarian) | GI50 (SK-MEL-5 melanoma) | GI50 (A549 NSCLC) | GI50 (COLO 205 colon) | GI50 (NCI-H23 lung) | GI50 (LOX IMVI melanoma) | GI50 (HOP-62 NSCLC)
1 | COc1cc(/C=C(\C#N)C(=O)c2ccccc2)ccc1O | > 100 µM | > 100 µM | > 100 µM | > 100 µM | > 100 µM | > 100 µM | > 100 µM | > 100 µM |  |  |  |  |  |  |  | 
2 | CN(C)c1ccc([O][Bi]([Cl])[Cl])cc1 | > 100 µM | > 100 µM | > 100 µM | > 100 µM | > 100 µM |  | > 100 µM | > 100 µM | > 100 µM | 53.2 µM | 29.6 µM | > 100 µM | > 100 µM | > 100 µM | > 100 µM | 
3 | COC(=O)C(=O)OC1(C(C)=O)CC2(c3ccccc3)OC1(c1ccccc1)c1ccccc12 (stereo not drawn) | 30.3 µM | 30.3 µM | 28.8 µM | 31.3 µM | 29.5 µM | 32.8 µM | 33.3 µM | 30.4 µM |  |  |  |  |  |  |  | 
4 | Oc1ccccc1C=NCc1ccco1 | > 100 µM | > 100 µM |  | > 100 µM |  | > 100 µM | > 100 µM | > 100 µM |  |  |  |  |  |  |  | 
5 | CC(=O)[CH-]C(=O)c1ccccc1.CC(=O)[CH-]C(=O)c1ccccc1.CC1(C)C2CCC1(C)C([O-])C2.CC1(C)C2CCC1(C)C([O-])C2.[Ti+4] | > 100 µM | > 100 µM | 39.1 µM | > 100 µM | > 100 µM | 81.8 µM |  | > 100 µM | 36.6 µM | 44.9 µM | 21.9 µM | 23.9 µM | 38.4 µM |  | 25.1 µM | 25.7 µM
6 | BrC1=CC=C2NC=CC3=CC=NC1C32 (stereo not drawn) | > 60.6 µM | > 94 µM | 45.4 µM |  | 58.5 µM | > 100 µM | > 82.8 µM | 21.4 µM |  |  |  |  |  |  |  | 
7 | Cc1ccccc1C(=O)c1ccccc1O | > 100 µM | > 100 µM | > 100 µM | > 100 µM | > 100 µM | > 100 µM | > 100 µM | > 100 µM |  |  |  |  |  |  |  | 
8 | O=C(CO)CC(=O)C(=O)Nc1ccccc1 | > 100 µM | > 100 µM | > 100 µM | > 100 µM | > 100 µM | > 100 µM | > 100 µM | > 100 µM |  |  |  |  |  |  |  | 
9 | Cn1c(=O)nc2n(-c3cccc(Br)c3)c3ccccc3nc-2c1=O | 8.53 µM | 25.4 µM | 3.41 µM | 14.5 µM | 9.64 µM | 28 µM | 4.91 µM |  |  |  |  |  |  |  |  | 
10 | N#CC(C(=O)/C(=N/N)C(C#N)c1ccccc1)c1ccccc1 (stereo not drawn) | > 100 µM | > 100 µM | > 100 µM | > 100 µM |  | > 100 µM | > 100 µM | > 100 µM |  |  |  |  |  |  |  | 
11 | Clc1cc(Cc2cc(Cl)c(Cl)c3c2OCOC3)c2c(c1Cl)COCO2 | > 100 µM | > 100 µM | > 100 µM | > 100 µM | > 100 µM | 63 µM | > 100 µM | > 100 µM |  |  |  |  |  |  |  | 
12 | O=C1NC(=O)C2C(=O)NC(=O)C1C2(c1ccccc1)c1cc[nH]c1 (stereo not drawn) | > 100 µM | > 100 µM | > 100 µM | > 100 µM | > 100 µM | > 100 µM | > 100 µM | > 100 µM |  |  |  |  |  |  |  | 
13 | CC(=O)[CH-]C(=O)c1ccccc1.CC(=O)[CH-]C(=O)c1ccccc1.[Eu+3].[OH-].[OH3+] | > 100 µM | > 100 µM | > 100 µM | > 100 µM | > 100 µM | > 100 µM | > 100 µM | > 100 µM | > 100 µM | > 100 µM | > 100 µM | > 100 µM | > 100 µM | > 100 µM | > 100 µM | > 100 µM
14 | N#Cc1c(NN)nc(NN)c(C#N)c1-c1ccccc1 | > 100 µM | > 100 µM | > 100 µM | > 100 µM | > 100 µM | > 100 µM | > 100 µM | > 100 µM |  |  |  |  |  |  |  | 
15 | N#CC(C(=O)CCC(=O)C(C#N)c1ccccc1)c1ccccc1 (stereo not drawn) | > 100 µM | > 100 µM | > 100 µM | > 100 µM | > 100 µM | > 100 µM | > 100 µM | > 100 µM |  |  |  |  |  |  |  | 
16 | O=c1cc2ccccc2nn1Cc1cccc(Cl)c1 | > 100 µM | > 100 µM | > 100 µM | > 100 µM | > 100 µM | > 100 µM | > 100 µM | > 100 µM |  |  |  |  |  |  |  | 
17 | CC1(c2cccc3ccccc23)OC(=O)c2ccccc21 (stereo not drawn) | 68.2 µM | > 100 µM | 26.2 µM | 49.7 µM | 29.8 µM | 41.6 µM | 38.1 µM | 42.8 µM |  |  |  |  |  |  |  | 
18 | CCC1(c2c(F)c(F)c(N)c(F)c2F)CCC(=O)NC1=O (stereo not drawn) | > 100 µM | > 100 µM | > 100 µM | > 100 µM | > 100 µM | > 100 µM | > 100 µM | > 100 µM |  |  |  |  |  |  |  | 
19 | Cc1cc2nc(CCC(=O)O)c(=O)[nH]c2cc1C |  | > 100 µM | > 100 µM | > 100 µM | > 100 µM | > 100 µM | > 100 µM | > 100 µM |  |  |  |  |  |  |  | 
20 | O=[N+]([O-])c1nccn1CC(O)CN1CC1 (stereo not drawn) | > 100 µM | > 100 µM | > 100 µM | > 100 µM | > 100 µM | > 100 µM | > 100 µM |  |  |  |  |  |  |  |  | 
